# Measurements published in PubChem BioAssay AID624376 (Broad Institute, 2012).
# Records with an inconclusive call do not appear. The source made the active and inactive calls. The rule behind the calls is not given here.
# Assay: LMP1-driven NF-kB reporter inhibition, dose response, cell-based, luciferase reporter, luminescence, dry powder, set 2 (AID 624376)
# Details: LMP1-induced NF-kappaB luciferase reporter cells, luminescence
Compound,"activity change, negative = inhibition (at 35 µM (top of the series))","activity change, negative = inhibition (at 30 µM (top of the series))"
CC(C)(C)[S@@](=O)N1Cc2cc(C(=O)NCCc3ccncc3)nc(-c3cccc(-c4cccnc4)c3)c2[C@H]1CCO,-10.1% (inactive),
C[C@H](NC(=O)C[C@@H]1C=C[C@H](NC(=O)Cc2ccccn2)[C@@H](CO)O1)c1ccccc1,5.95% (inactive),
CN(C)c1ccc2c(c1)[C@@H]1C[C@@H](CC(=O)NCc3ccc(Oc4ccccc4)cc3)O[C@@H](CO)[C@@H]1O2,-26.2% (inactive),
C[C@@H]1CN([C@@H](C)CO)C(=O)c2c(c3ccccc3n2C)-c2ccccc2CO[C@H]1CN(C)C(=O)Nc1ccc(F)cc1,-7.17% (inactive),
Cc1noc(C)c1S(=O)(=O)Nc1ccc2c(c1)C(=O)N([C@H](C)CO)C[C@@H](C)[C@H](CN(C)Cc1ccc(C(F)(F)F)cc1)OCCCC[C@@H](C)O2,-6% (inactive),
C[C@H](CO)N1C[C@H](C)[C@@H](CN(C)Cc2ccc(C(F)(F)F)cc2)Oc2ccc(NC(=O)Cc3ccccc3)cc2CC1=O,17.6% (inactive),
O=C(C[C@H]1C[C@@H]2c3cc(NS(=O)(=O)c4ccc(F)cc4)ccc3O[C@@H]2[C@H](CO)O1)NC1CCCCC1,-0.993% (inactive),
CS(=O)(=O)Nc1ccc2c(c1)[C@@H]1C[C@H](CC(=O)NCC3CC3)O[C@H](CO)[C@@H]1O2,-9.8% (inactive),
C[C@@H]1CN([C@H](C)CO)C(=O)c2c(c3ccccc3n2C)-c2ccccc2CO[C@H]1CN(C)C(=O)Nc1ccc(F)cc1,-0.608% (inactive),
O=C(C[C@@H]1C[C@H]2c3cc(NS(=O)(=O)c4ccc(F)cc4)ccc3O[C@H]2[C@@H](CO)O1)NC1CCCCC1,2.38% (inactive),
Cc1noc(C)c1S(=O)(=O)Nc1ccc2c(c1)C(=O)N([C@H](C)CO)C[C@H](C)[C@@H](CN(C)Cc1ccc(C(F)(F)F)cc1)OCCCC[C@@H](C)O2,-11.7% (inactive),
O=C(Cc1ccccn1)NCC[C@@H]1CC[C@@H](NC(=O)Nc2ccc(Cl)cc2)[C@H](CO)O1,0.177% (inactive),
C[C@@H](NC(=O)C[C@@H]1C=C[C@H](NC(=O)Cc2ccccn2)[C@@H](CO)O1)c1ccccc1,-7.31% (inactive),
Cc1noc(C)c1S(=O)(=O)Nc1ccc2c(c1)C(=O)N([C@@H](C)CO)C[C@H](C)[C@H](CN(C)Cc1ccc(C(F)(F)F)cc1)OCCCC[C@@H](C)O2,,2.6% (inactive)
C[C@@H]1CN([C@H](C)CO)C(=O)Cc2cc(NC(=O)Cc3ccccc3)ccc2O[C@H]1CN(C)Cc1ccc(C(F)(F)F)cc1,-5.26% (inactive),
C[C@@H](NC(=O)C[C@@H]1C=C[C@H](NC(=O)Cc2ccccn2)[C@H](CO)O1)c1ccccc1,1.6% (inactive),
C[C@H](NC(=O)C[C@H]1C=C[C@@H](NC(=O)Cc2ccccn2)[C@H](CO)O1)c1ccccc1,0.463% (inactive),
COC(=O)C[C@H]1C[C@H]2c3cc(NC(=O)CN(C)C)ccc3O[C@H]2[C@H](CO)O1,-9.49% (inactive),
O=C(Cc1ccccn1)NCC[C@@H]1CC[C@H](NC(=O)Nc2ccc(Cl)cc2)[C@H](CO)O1,-9.97% (inactive),
Cc1noc(C)c1S(=O)(=O)Nc1ccc2c(c1)C(=O)N([C@H](C)CO)C[C@H](C)[C@@H](CN(C)Cc1ccc(C(F)(F)F)cc1)OCCCC[C@H](C)O2,27.4% (inactive),
Cc1noc(C)c1S(=O)(=O)Nc1ccc2c(c1)C(=O)N([C@@H](C)CO)C[C@H](C)[C@H](CN(C)Cc1ccc(C(F)(F)F)cc1)OCCCC[C@H](C)O2,-10.2% (inactive),
C[C@H](NC(=O)C[C@H]1C=C[C@H](NC(=O)Cc2ccccn2)[C@@H](CO)O1)c1ccccc1,10.7% (inactive),

Compound,"activity change, negative = inhibition (at 35 µM (top of the series))","activity change, negative = inhibition (at 30 µM (top of the series))"
C[C@H]1CN([C@@H](C)CO)C(=O)Cc2cc(NC(=O)Cc3ccccc3)ccc2O[C@H]1CN(C)Cc1ccc(C(F)(F)F)cc1,18.5% (inactive),
Cc1noc(C)c1S(=O)(=O)Nc1ccc2c(c1)C(=O)N([C@H](C)CO)C[C@@H](C)[C@@H](CN(C)Cc1ccc(C(F)(F)F)cc1)OCCCC[C@H](C)O2,16.2% (inactive),
Cc1noc(C)c1S(=O)(=O)Nc1ccc2c(c1)C(=O)N([C@H](C)CO)C[C@@H](C)[C@H](CN(C)Cc1ccc(C(F)(F)F)cc1)OCCCC[C@H](C)O2,-0.786% (inactive),
C[C@@H](NC(=O)C[C@H]1C=C[C@@H](NC(=O)Cc2ccccn2)[C@@H](CO)O1)c1ccccc1,-14% (inactive),
C[C@@H](NC(=O)C[C@@H]1C=C[C@@H](NC(=O)Cc2ccccn2)[C@H](CO)O1)c1ccccc1,-0.374% (inactive),
C[C@@H](NC(=O)C[C@H]1C=C[C@H](NC(=O)Cc2ccccn2)[C@H](CO)O1)c1ccccc1,-2.05% (inactive),
O=C(Cc1ccccn1)NCC[C@H]1CC[C@H](NC(=O)Nc2ccc(Cl)cc2)[C@@H](CO)O1,4.16% (inactive),
COC(=O)C[C@@H]1C[C@@H]2c3cc(NC(=O)CN(C)C)ccc3O[C@@H]2[C@@H](CO)O1,-4.49% (inactive),
O=C(Cc1ccccn1)NCC[C@H]1CC[C@@H](NC(=O)Nc2ccc(Cl)cc2)[C@H](CO)O1,-2.95% (inactive),
C[C@H](CO)N1C[C@H](C)[C@H](CN(C)Cc2ccc(C(F)(F)F)cc2)Oc2ccc(NC(=O)Cc3ccccc3)cc2CC1=O,3.81% (inactive),
COc1cccc(S(=O)(=O)N(C)C[C@@H]2Oc3cc(C4=CCCCC4)ccc3S(=O)(=O)N([C@@H](C)CO)C[C@H]2C)c1,4.81% (inactive),
Cc1noc(C)c1S(=O)(=O)Nc1ccc2c(c1)C(=O)N([C@H](C)CO)C[C@@H](C)[C@@H](CN(C)Cc1ccc(C(F)(F)F)cc1)OCCCC[C@@H](C)O2,-6.08% (inactive),
CS(=O)(=O)Nc1ccc2c(c1)[C@H]1C[C@@H](CC(=O)NCC3CC3)O[C@@H](CO)[C@H]1O2,5.22% (inactive),
O=C(C[C@@H]1C[C@@H]2c3cc(NC(=O)c4cccnc4)ccc3O[C@@H]2[C@H](CO)O1)NCC(F)(F)F,-8.21% (inactive),
COc1ccccc1CNC(=O)C[C@H]1C[C@@H]2c3cc(NC(=O)CN(C)C)ccc3O[C@@H]2[C@@H](CO)O1,-6.3% (inactive),
Cc1noc(C)c1S(=O)(=O)Nc1ccc2c(c1)C(=O)N([C@@H](C)CO)C[C@@H](C)[C@@H](CN(C)Cc1ccc(C(F)(F)F)cc1)OCCCC[C@H](C)O2,13% (inactive),
O=C(Cc1ccccn1)NCC[C@H]1CC[C@@H](NC(=O)Nc2ccc(Cl)cc2)[C@@H](CO)O1,0.728% (inactive),
C[C@H](NC(=O)C[C@@H]1C=C[C@@H](NC(=O)Cc2ccccn2)[C@H](CO)O1)c1ccccc1,4.21% (inactive),
C[C@H]1CN([C@@H](C)CO)C(=O)Cc2cc(NC(=O)Cc3ccccc3)ccc2O[C@@H]1CN(C)Cc1ccc(C(F)(F)F)cc1,-3.24% (inactive),
COc1cccc(S(=O)(=O)N(C)C[C@H]2Oc3cc(C4=CCCCC4)ccc3S(=O)(=O)N([C@H](C)CO)C[C@H]2C)c1,-4.73% (inactive),
CO[C@@H]1CN(C)C(=O)c2ccc(NC(C)=O)cc2OC[C@@H](C)N(Cc2ccccc2F)C[C@H]1C,0.725% (inactive),
